Measurements as given in patent US7989589B2, “Compstatin analogs with improved activity” (The Trustees Of The University Of Pennsylvania, priority 2002, dated 2011).

What was measured:
[1] = tested on: alternative pathway-mediated erythrocyte lysis; conditions: cited from earlier work
[2] = tested on: heparin/protamine-induced complement activation; conditions: primates; cited from earlier work
[3] = tested on: complement activation in human serum; conditions: cited from earlier work
[4] = tested on: complement activation; conditions: cardio-pulmonary bypass, plasmapheresis, dialysis models; cited from earlier work
[5] = tested on: porcine-to-human xenograft; conditions: porcine-to-human xenograft perfused with human blood; cited from earlier work
[6] = tested on: activation of the complement system by immunocomplexes (C3 fixation); experiment: Complement inhibition assay: inhibition of C3 fixation (C3b/iC3b deposition) to ovalbumin-anti-ovalbumin complexes in normal human plasma; format: biochemical; conditions: complement-inhibiting activity
Procedure: Complement activation inhibition was assessed by measuring the inhibition of C3 fixation to ovalbumin—anti-ovalbumin complexes in normal human plasma. Microtiter wells were coated with 50 μl of ovalbumin (10 mg/ml) for 2 hr at 25° C. (overnight at 4° C.). The wells were saturated with 200 μl of 10 mg/ml BSA for 1 hr at 25° C. and then a rabbit anti-ovalbumin antibody was added to form an immunocomplex by which complement can be activated. Thirty microliters of peptides at various concentrations were added directly to each well followed by 30 μl of a 1:80 dilution of human plasma. After 30 min incubation, bound C3b/iC3b was detected using a goat anti-human C3 BRP-conjugated antibody. Color was developed by adding ABTS peroxidase substrate and optical density measured at 405 nm. The concentration of the peptide causing 50% inhibition of C3b/iC3b deposition was taken as the IC50 and used to compare the activities of various peptides.

[7] = tested on: complement activation; conditions: in vivo animal models; cited from earlier work

Molecule: CC[C@H](C)[C@H](N)C(=O)N[C@H]1CSSC[C@@H](C(=O)N[C@H](C(N)=O)[C@@H](C)O)NC(=O)[C@H](CCCN=C(N)N)NC(=O)[C@H](Cc2cnc[nH]2)NC(=O)[C@H](Cc2cnc[nH]2)NC(=O)CNC(=O)[C@H](Cc2c[nH]c3ccccc23)NC(=O)[C@H](CC(=O)O)NC(=O)[C@H](CCC(N)=O)NC(=O)[C@H](C(C)C)NC(=O)[C@H](C(C)C)NC1=O [Compstatin]
- IC50 [1]: 12 µM
- inhibition of heparin/protamine-induced complement activation [2]: inhibit heparin/protamine-induced complement activation in primates without significant side effects
- inhibition of complement activation in human serum [3]: inhibit complement activation in human serum
- inhibition of complement activation in extra-corporeal circuit models [4]: inhibit complement activation in models of cardio-pulmonary bypass, plasmapheresis, and dialysis extra-corporeal circuits
- lifetime of xenograft [5]: prolong the lifetime of a porcine-to-human xenograft perfused with human blood

Molecule: Ac-ICVWQDWGAHRCdT-COOH [Ac- 4W, 9A13dT —OH]
- activity compared with another peptide (in words) [6]: activity equal to that of peptide SEQ ID NO:5

Molecule: sCR1: recombinant form of complement receptor 1 known as soluble complement receptor 1
- suppression of complement activation [7]: suppress complement activation in in vivo animal models
